Key:
Type in all cases: in vivo
[1] = system: rice (Oryza sativa); test: Test B flooded paddy test, rice; settings: Flood, 250 g ai/ha, applied to paddy water, 2-leaf stage, visual evaluation after 13 to 15 d
Procedure, shortened: (§1)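 Plants grown to 2-leaf stage. Compounds applied directly into paddy water flooded 3 cm above soil, with that depth kept throughout. After 13–15 d in greenhouse, visual rating versus controls on a 0–100 scale (0 no effect, 100 complete control).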

[2] = system: foxtail, giant (Setaria faberii); test: Test A preemergence, giant foxtail; settings: 0 to 100 scale; for Foxtail, Giant plant response rating: 125 g ai/ha, 0 is no effect, 100 is complete control; for Plant response rating, Foxtail, Giant: 500 g ai/ha
Procedure, shortened: (§2)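 Post: seedlings 2–10 cm, 1–2 leaves, foliar spray. Pre: soil spray after sowing in loam/sand blend. Both formulated in non-phytotoxic solvent with surfactant; injury scored visually 0–100 after ~10 d.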

[3] = system: pigweed (Amaranthus retroflexus); test: Test A postemergence, pigweed; settings: 0 to 100 scale
Procedure, shortened: as §2

[4] = system: barnyardgrass (Echinochloa crus-galli); test: Test A postemergence, barnyardgrass; settings: 0 to 100 scale
Procedure, shortened: as §2

[5] = system: ragweed (common ragweed, Ambrosia elatior); test: Test A postemergence, ragweed; settings: 0 to 100 scale
Procedure, shortened: as §2

[6] = system: corn (Zea mays); test: Test A postemergence, corn; settings: 0 to 100 scale
Procedure, shortened: as §2

[7] = system: barnyardgrass (Echinochloa crus-galli); test: Test B flooded paddy test, barnyardgrass; settings: Flood, 250 g ai/ha, applied to paddy water, 2-leaf stage, visual evaluation after 13 to 15 d
Procedure, shortened: as §1

[8] = system: pigweed (Amaranthus retroflexus); test: Test A preemergence, pigweed; settings: 0 to 100 scale; for Pigweed plant response rating: 125 g ai/ha, 0 is no effect, 100 is complete control; for Plant response rating, Pigweed: 500 g ai/ha
Procedure, shortened: as §2

[9] = system: sedge, umbrella (small-flower umbrella sedge, Cyperus difformis); test: Test B flooded paddy test, umbrella sedge; settings: Flood, 250 g ai/ha, applied to paddy water, 2-leaf stage, visual evaluation after 13 to 15 d
Procedure, shortened: as §1

[10] = system: ducksalad (Heteranthera limosa); test: Test B flooded paddy test, ducksalad; settings: Flood, 250 g ai/ha, applied to paddy water, 2-leaf stage, visual evaluation after 13 to 15 d
Procedure, shortened: as §1

[11] = system: ragweed (common ragweed, Ambrosia elatior); test: Test A preemergence, ragweed; settings: 0 to 100 scale; for Ragweed plant response rating: 125 g ai/ha, 0 is no effect, 100 is complete control; for Plant response rating, Ragweed: 500 g ai/ha
Procedure, shortened: as §2

[12] = system: ryegrass, Italian (Lolium multiflorum); test: Test A preemergence, Italian ryegrass; settings: 0 to 100 scale; for Ryegrass, Italian plant response rating: 125 g ai/ha, 0 is no effect, 100 is complete control; for Plant response rating, Ryegrass, Italian: 500 g ai/ha
Procedure, shortened: as §2

[13] = system: kochia (Kochia scoparia); test: Test A preemergence, kochia; settings: 0 to 100 scale; for Kochia plant response rating: 125 g ai/ha, 0 is no effect, 100 is complete control; for Plant response rating, Kochia: 500 g ai/ha
Procedure, shortened: as §2

[14] = system: ryegrass, Italian (Lolium multiflorum); test: Test A postemergence, Italian ryegrass; settings: 0 to 100 scale
Procedure, shortened: as §2

[15] = system: kochia (Kochia scoparia); test: Test A postemergence, kochia; settings: 0 to 100 scale
Procedure, shortened: as §2

[16] = system: blackgrass (Alopecurus myosuroides); test: Test A postemergence, blackgrass; settings: 0 to 100 scale
Procedure, shortened: as §2

[17] = system: galium (catchweed bedstraw, Galium aparine); test: Test A postemergence, galium; settings: 0 to 100 scale
Procedure, shortened: as §2

[18] = system: wheat (Triticum aestivum); test: Test A postemergence, wheat; settings: 0 to 100 scale
Procedure, shortened: as §2

[19] = system: foxtail, giant (Setaria faberii); test: Test A postemergence, giant foxtail; settings: 0 to 100 scale
Procedure, shortened: as §2

[20] = system: barnyardgrass (Echinochloa crus-galli); test: Test A preemergence, barnyardgrass; settings: 0 to 100 scale; for Barnyardgrass plant response rating: 125 g ai/ha, 0 is no effect, 100 is complete control; for Plant response rating, Barnyardgrass: 500 g ai/ha
Procedure, shortened: as §2

| Structure (SMILES) | Plant response rating, Rice (0 to 100 scale, 0 is no effect, 100 is complete control) [1] | Foxtail, Giant plant response rating [2] | Plant response rating, Foxtail, Giant [2] | Plant response rating, Pigweed ([3]; 125 g ai/ha) | Plant response rating, Pigweed ([3]; 500 g ai/ha) | Plant response rating, Barnyardgrass ([4]; 125 g ai/ha) | Plant response rating, Barnyardgrass ([4]; 500 g ai/ha) | Plant response rating, Ragweed ([5]; 125 g ai/ha) | Plant response rating, Ragweed ([5]; 500 g ai/ha) | Plant response rating, Corn ([6]; 125 g ai/ha) | Plant response rating, Corn ([6]; 500 g ai/ha) | Plant response rating, Barnyardgrass (0 to 100 scale, 0 is no effect, 100 is complete control) [7] | Pigweed plant response rating [8] | Plant response rating, Pigweed [8] | Plant response rating, Sedge, Umbrella (0 to 100 scale, 0 is no effect, 100 is complete control) [9] | Plant response rating, Ducksalad (0 to 100 scale, 0 is no effect, 100 is complete control) [10] | Ragweed plant response rating [11] | Plant response rating, Ragweed [11] | Ryegrass, Italian plant response rating [12] | Plant response rating, Ryegrass, Italian [12] | also measured |
| --- | --- | --- | --- | --- | --- | --- | --- | --- | --- | --- | --- | --- | --- | --- | --- | --- | --- | --- | --- | --- | --- |
| CC(COc1cc(F)c(F)c(F)c1)Nc1ncc(C(F)(F)F)c(N)n1 (stereo not drawn) [Compound 36] | 0 | 0 | 0 | 0 | 0 | 0 | 0 | 0 | 0 | 10 | 0 | 0 | 0 | 0 | 0 | 0 | 0 | 0 | 0 | 0 | Kochia plant response rating [13]: 70; Plant response rating, Kochia [13]: 30; Plant response rating, Ryegrass, Italian ([14]; 125 g ai/ha): 0; Plant response rating, Ryegrass, Italian ([14]; 500 g ai/ha): 0; Plant response rating, Kochia ([15]; 125 g ai/ha): 0; Plant response rating, Kochia ([15]; 500 g ai/ha): 0; Plant response rating, Blackgrass ([16]; 125 g ai/ha): 0; Plant response rating, Blackgrass ([16]; 500 g ai/ha): 0; Plant response rating, Galium ([17]; 125 g ai/ha): 0; Plant response rating, Galium ([17]; 500 g ai/ha): 0; Plant response rating, Wheat ([18]; 125 g ai/ha): 0; Plant response rating, Wheat ([18]; 500 g ai/ha): 0; Plant response rating, Foxtail, Giant ([19]; 125 g ai/ha): 0; Plant response rating, Foxtail, Giant ([19]; 500 g ai/ha): 0; Barnyardgrass plant response rating [20]: 0; Plant response rating, Barnyardgrass [20]: 0 |
| CC(COc1cccc(F)c1)Nc1ncc(C(F)(F)F)c(N)n1 (stereo not drawn) [Compound 37] | 0 | 0 | 0 | 0 | 40 | 0 | 0 | 0 | 0 | 0 | 0 | 0 | 50 | 70 | 0 | 0 | 0 | 100 | 0 | 0 | Kochia plant response rating [13]: 0; Plant response rating, Kochia [13]: 0; Plant response rating, Ryegrass, Italian ([14]; 125 g ai/ha): 0; Plant response rating, Ryegrass, Italian ([14]; 500 g ai/ha): 0; Plant response rating, Kochia ([15]; 125 g ai/ha): 0; Plant response rating, Kochia ([15]; 500 g ai/ha): 0; Plant response rating, Blackgrass ([16]; 125 g ai/ha): 0; Plant response rating, Blackgrass ([16]; 500 g ai/ha): 0; Plant response rating, Galium ([17]; 125 g ai/ha): 20; Plant response rating, Galium ([17]; 500 g ai/ha): 40; Plant response rating, Wheat ([18]; 125 g ai/ha): 0; Plant response rating, Wheat ([18]; 500 g ai/ha): 0; Plant response rating, Foxtail, Giant ([19]; 125 g ai/ha): 0; Plant response rating, Foxtail, Giant ([19]; 500 g ai/ha): 0; Barnyardgrass plant response rating [20]: 0; Plant response rating, Barnyardgrass [20]: 0 |

Reference: US20220119354A1, “DIAMINO-SUBSTITUTED PYRIDINES AND PYRIMIDINES AS HERBICIDES” (FMC Corporation, priority 2019, published 2022)
